“Also recorded” adds a separate entry of the source. Like-named read-outs stand apart in the source and are kept apart here.
Columns and labels:
[1] = tested on: HEK Tau-FusionRed^sol cells expressing murine XPR1-HA; experiment: Tau aggregate induction in recipient cells by EVs from N2a s2E Tau-GFP^CBD donor cells; type: cell-based, human; details: EVs from treated donors; recipients cultured in drug-containing medium, 3 d
Protocol: (§1) To examine this effect on Tau aggregate spreading, an N2a s2E cell clone stably propagating aggregated Tau-GFP^CBD was produced (FIG. 11a). […]. Cells and EVs were analyzed for the presence of aggregated Tau-GFP. Pronase-resistant Tau-GFP was found in both cell lysate and EVs (FIG. 2q). To inhibit MuERV gene product maturation, donor cells were treated with Amprenavir for three days. Donor cells and donor cell-derived EVs were subsequently exposed for three days to recipient HEK cells expressing soluble Tau-FusionRed and the murine XPR1 receptor variant required for MuERV Env interaction. Due to this long incubation time, the coculture and EV induction assays were performed in the presence of Amprenavir (FIG. 11b). […]
(§2) Recipient cells were cultured on CellCarrier-96 plates or 384 black microplates (PerkinElmer) at appropriate cell numbers for 1 h, and then treated with 5-10 μl of prepared samples (isolated EVs or recombinant NM fibrils). […] On average, a total of 3-4×10^4 cells per well and at least 3 wells per treatment were analyzed.
(§3) The treatment of cells with Amprenavir (10 μM; Santa Cruz) and DMSO was performed for 72 h in EV-depleted medium in T175 flasks. Afterwards, the total numbers of viable cells and the viability upon drug treatment were determined using the Vi-VELL™ XR Cell Viability Analyzer (Beckman Coulter). […]

[2] = tested on: HEK Tau-FusionRed^sol cells expressing murine XPR1-HA; experiment: Tau aggregate induction in recipient cells by coculture with N2a s2E Tau-GFP^CBD donor cells; type: cell-based, human; details: donors pretreated with 10 μM; coculture 3 d in the presence of 10 μM; vs DMSO
Protocol: as §1, §2, §3

[3] = tested on: N2a NM-GFP^sol cells; type: cell-based, mouse; details: for percentage of recipient cells with NM-GFP aggregates: compounds added to cocultures 1 h after co-seeding, three concentrations, 12 h
[4] = tested on: HERV-W Env (Syncytin-1) mRNA; experiment: Quantitative real-time PCR of Syncytin-1 in MCF-7 cells; type: cell-based, human; details: MCF-7 Tau-GFPAD cells, 2 μM for 4 d; vs DMSO
Protocol: FIG. 14: Human endogenous retroviruses contribute to the spreading of protein aggregates. • a. Experimental workflow. A human breast cancer cell line MCF-7 (4) was engineered to stably express Tau-GFP and induced to propagate Tau aggregates by exposure to Alzheimer's disease brain homogenate (AD). A single cell clone was subsequently isolated and used in the experiment (MCF-7 Tau-GFPAD). This donor clone was treated with 2 μM 5-Aza-2-deoxycytidine (Aza) for 4 d to de-repress HERV expression. Pretreated donor cells were cocultured with HEK-Tau-FRsol cells. • b. […] Statistics: Unpaired Student's t-test (n=3). • c. Quantitative analysis of recipient cells with induced Tau-FR aggregates following coculture with DMSO-treated or Aza-treated donor cells. Statistics: Unpaired Student's t-test (n=6). • d. […] Recipients were subsequently cocultured with transduced donors that had been passaged at least 5 times post transduction. • e. shRNA-mediated downregulation of Syncytin-1 mRNA in MCF-7 Tau-GFPAD cells assessed by quantitative real-time PCR. […] Quantitative analysis of recipient cells with induced Tau-FR aggregates following coculture with donors with decreased HERV-W Syncytin-1 expression. […]
Total RNAs from cell pellets were isolated using the RNeasy Mini Kit or RNeasy Lipid Tissue Mini Kit (Qiagen). RNA concentration and quality were determined with Agilent 2100 Bioanalyzer System. […]

Row | Compound | Tau-FusionRed aggregate induction by EVs [1] | Tau-FusionRed aggregate induction in cocultures [2] | percentage of recipient cells with NM-GFP aggregates ([3]; vs DMSO) | percentage of recipient cells with NM-GFP aggregates ([3]; vs DMSO, listed as amprenavir) | intercellular aggregate induction during coculture ([3]; donor cells pre-treated with 10 μM for 3 days, coculture in the absence of drug, 16 h) | NM aggregate induction in recipient cells cocultured with pretreated donors ([3]; s2E P1 donors pretreated, Aza 200 nM or Dec 100 nM, vs DMSO) | Syncytin-1 mRNA levels [4]
1 | CC(C)CN(C[C@@H](O)[C@H](Cc1ccccc1)NC(=O)O[C@H]1CCOC1)S(=O)(=O)c1ccc(N)cc1 [Amprenavir] | also decreased Tau-FusionRed aggregate induction in murine XPR1 expressing recipient cells | decreased Tau-FusionRed aggregate induction in Amprenavir-treated cocultures; also recorded: significantly decreased Tau-FusionRed aggregate induction in recipients | reduce aggregate induction; also recorded: observed only when donor cells were cotreated | reduced the percentage of recipient cells with NM-GFP aggregates | significantly inhibited intercellular aggregate induction during coculture |  | 
2 | Nc1ncn([C@H]2C[C@H](O)[C@@H](CO)O2)c(=O)n1 [Decitabine, 5-aza-2′-deoxycytidine] |  |  |  |  |  | significantly increased NM aggregate induction in recipient cells | enhanced Syncytin-1 mRNA levels; also recorded: increased HERV-W Env (Syncytin-1) expression

Reference: patent US20220332799A1, “HERV INHIBITORS FOR USE IN TREATING TAUOPATHIES” (Deutsches Zentrum Für Neurodegenerative Erkrankungen E.V. …, priority 2019, published 2022)
